Reference: patent US6534099B1, “Pesticidal compositions containing menthyl salicylate” (Ecosmart Technologies, Inc., priority 1993, dated 2003)

How the values were obtained:
German cockroaches = assay: Walk-across continuous exposure in treated jars (Study A and B); assay type: in vivo
Experimental: Experiment 1: To determine the lethal activity of menthyl salicylate against cockroaches. Menthyl salicylate was tested at 250 mg/jar against German cockroaches. Two replicates were used in this study. Three adult German cockroaches were used per replicate. Continuous exposure was performed with “walk-across”. All controls and treated roaches were under continuous observations for 6 hrs.
Experiment 1. To determine whether menthyl salicylate acts as a synergist to eugenol and /or PEP blend. This experiment was also conducted against German cockroaches as described in Study A. Several blends of Eugenol/PEP were tested.

black ants = assay: Open glass petri dish exposure (Study E); assay type: in vivo; settings: mixed with soybean oil
Source text: (§1) To address whether the efficacy of PEP will be increased with menthyl salicylate/soybean oil against harvester and black ants.
(§2) glass petri dishes 100 mm were used in this study
(§3) all treated dishes kept open during the time of exposure

harvester = assay: Open glass petri dish exposure (Study E); assay type: in vivo, harvester ants; settings: mixed with soybean oil
Source text: as §1, §2, §3

## CC1CCC(C(C)C)C(OC(=O)c2ccccc2O)C1 (stereo not drawn) [Menthyl salicylate, 2-hydroxybenzoic acid 5-methyl-2-(1-methylethyl)cyclohexyl ester]
German cockroaches; 250 mg/jar
  killing agent (conclusion in words): good killing agent
German cockroaches; 250 mg/jar, 24 hr after continuous exposure
  mortality (M): 100%
German cockroaches; menthyl salicylate 250 mg/jar, 20 min after exposure
  KD (knock-down): 30%
German cockroaches; menthyl salicylate at 4-250 mg
  synergy with eugenol/PEP (in words): synergizes the efficacy of eugenol/PEP
Black ants
  time to 100% M: ≤ 40 min
harvester
  time to 100% M: ≤ 11 min
